Results published in patent US20230158177A1, “HYPOXIA-TARGETING CONTRAST AGENT AND METHODS OF USE THEREOF” (Arizona Board of Regents on behalf of Arizona State …, priority 2021, published 2023).
Where “and” joins values, the source holds several entries; their conditions need not be identical. Equal entries are not always repeated.

Tests used:
[1] = Relaxometry: relaxivity in a water phantom at 7T; type: physicochemical; conditions: for longitudinal relaxivity r1 / transverse relaxivity r2: in water; for longitudinal relaxivity r1: slope of linear fit of R1 vs [C]; for transverse relaxivity r2: slope of linear fit of R2 vs [C]
Experimental: The basic paramagnetic properties i.e., relaxivity of chelated DFOB (FOB) and FOBNI was measured at 7T using a preclinical Bruker MRI scanner. The relaxivity of the two molecules were studied using a home-made 3D printed phantom capable of controlling temperature. The phantoms contained nine different concentrations of each contrast agents in water from 0-4 mM for FOB and 0-10 mM for FOBNI. The imaging parameters for this study were as matrix size 64×64, the field of view 2.56 cm×2.56 cm and TR=205-5000 ms, […] for the T1 map and TR=5000 ms, TE=8-200 ms for the T2 map. The MR images were later analyzed in a homemade MATLAB code to calculate the T1 and T2 values for each pixel. Using the T1 and T2 values for each concentration and Ri=[C]ri+Ri^0 equation the relaxivity values were calculated by a linear fit on Ri and [C]. Where Ri (i=1 or 2) is the relaxation rate of the tissue, [C] is the concentration of the contrast agent, ri is the relaxivity of the contrast agent and the Ri^0 is the intrinsic relaxation rate of the water. FIG. 7A and FIG. 7B show the T1 and T2 maps for the phantom and a concentration map indicating the concentrations of FOB and FOBNI in each respective well.
FIG. 8 represents the result of the linear fit for R1 and R2 for the two contrast agents. […] Using the linear fit function, the following equations are acquired for relaxation rate vs concentration, R1=(2.06±0.06)[C]+(0.49±0.04) (in red) and R2=(2.75±0.06)[C]+(3.75±0.08) (in gray) for FOB and R1=(0.51±0.1)[C]+(0.44±0.03) (in red) and R2=(4.51±0.14)[C]+(3.87±0.19) (in gray) for FOBNI.

[2] = test system: NIH-3T3 fibroblast cells; experiment: Cytotoxicity: cell viability assay using Alamar blue; type: cell-based; conditions: for cell viability (Alamar blue): hypoxic and normoxic conditions
Experimental: To study the cytotoxicity of DFOB, NIH-3T3 fibroblast cells were used. The cells were exposed to different concentrations of DFOB for 4, 8, and 24 h under either hypoxic or normoxic conditions. Afterwards, the cells were washed with PBS and exposed to 10% Alamar blue in media for 4 h in their respective conditions. To assess the viability of the cells 100 µl of the exposed Alamar blue was collected in a 96-well plate using the spectrophotometer the absorbance was measured at 570 nm and 600 nm excitations and the viability of the cells was calculated.
Cytotoxicity assay for FOBNI was a viability test using Alamar blue. The results are summarized in FIG. 5 for normoxic conditions and FIG. 6 for hypoxic conditions. […] The increased viability, which is a translation of reduced Alamar blue in control samples of 8 h and 24 h can be attributed to the increased number of the cells in the control wells. After seeding the cells the cell number in the control wells could increase and that can influence the amount of reduced compound in absorbance test.

[3] = test system: 3T3 fibroblast cells; experiment: In vitro hypoxia-targeting study: T1 and T2 MRI of cell pellets; type: cell-based; conditions: for Relaxation time T1 of exposed cell pellets / Relaxation time T2 of exposed cell pellets: 7 T; for contrast agent concentration in cell pellet: from the relaxivity equation for transverse relaxation rate
Experimental: The in vitro study for hypoxia-targeting efficiency of FOBNI was assessed in a hypoxia chamber glove box capable of adjusting oxygen concentration, temperature and CO2 and equipped with a small centrifuge unit. The 3T3 fibroblast cells were grown in a T-150 flask once they reached the confluency of 80% divided equally to five T-75 flasks to ensure the flasks were identical before being exposed to contrast agents and different conditions. The cells were supplied with Dulbecco's Modified Eagle Medium (DMEM), fetal bovine serum (10%), and penicillin/streptomycin (1%). Once the five flasks reached the confluency of 75-80% the growth media were replaced with the following mediums.
Two flasks were supplied with fresh culture media supplemented with DFOB, two with fresh media and FOBNI and one with just fresh media as control. The control and one FOB and one FOBNI labeled flasks were placed in a regular cell incubator at 21% O2, 5% CO2 and 37° C. and the remaining two flasks were transferred to the hypoxia chamber at 1% O2, 5% CO2 and 37° C. All the samples were kept at defined conditions for 4 h before removing the media. The cells were washed three times with phosphate buffered saline (PBS) at the end of four hour incubation and were detached by being exposed to trypsin for 5 min. The collected cell mixtures in Eppendorf Tube were centrifuged at 1000 rpm for 5 min and the medium was removed. Afterwards, the cell pellets were suspended in PBS and again centrifuged three times to ensure the removal of unbound or free DFOB or FOBNI. Finally, to keep the cell pellets intact the tubes were filled with low temperature liquid agar and placed in the fridge to solidify.
MR Imaging—The samples were imaged using a rat brain surface coil at 7 T. The voxel wise T1 and T2 maps of the samples were calculated using MATLAB based software and the images from Variable Repetition Time Fast Spin Echo (VTR) Sequence and multi-echo spin echo sequence, respectively. The VTR sequence was performed with TE=8 ms and thirteen TR values ranging between (205-5000 ms). The images in multi-echo sequence were acquired with TE ranging between 8-200 ms and TR=5000 ms. The field of view was 2.56 cm×2.56 cm and the matrix size of 64×64 for all the experiments. The ROI analysis to calculate the T1 and T2 values for cell pellets were performed in MATLAB.
Statistics—All results are reported as means±standard deviations (SD). For statistical comparisons unpaired t-test was employed and confidence intervals α=0.05, 95% was used between specific means.

[4] = cited from earlier work
[5] = mouse; cited from earlier work
[6] = hypoxic (H), 1% O2, 4 h exposure
[7] = normoxic (N), 21% O2, 4 h exposure

Row | Molecule | decrease in r1 value compared to FOB [1] | longitudinal relaxivity r1 [1] | transverse relaxivity r2 [1] | cell viability (Alamar blue) ([2]; 100-400 μM, up to 24 h exposure, control of the 4 h exposure used, n=3) | cell viability (Alamar blue) ([2]; after 8 h and 24 h of exposure, control of each time point used) | cytocompatibility (cell viability assay) ([2]; up to 8 h of direct exposure to the cells) | Relaxation time T1 of exposed cell pellets [3, 6] [ms] | Relaxation time T2 of exposed cell pellets [3, 6] [ms] | increase in pellet concentration, FOBNI vs FOB ([3]; hypoxic condition) [fold] | contrast agent concentration in cell pellet ([3]; hypoxic) [mM] | Relaxation time T1 of exposed cell pellets [3, 7] [ms] | Relaxation time T2 of exposed cell pellets [3, 7] | contrast agent concentration in cell pellet ([3]; normoxic) [mM] | cellular uptake after addition of nitroimidazole moiety ([3]; vs FOB, seen in T2 values under normoxic conditions) | cell permeability [4] | circulation half-time [5]
1 | Feroxamine B conjugate of 2-nitroimidazole [FOBNI] | about 75% | 0.51 L/s/mmol and 0.51 ± 0.1 L/s/mmol | 4.51±0.14 | no significant reduction | significant drop in cell viability | cytocompatibility | 1909 ± 162 | 32.4 ± 3.4 | 1.73 | 5.98 | 1793 ± 165 | 59.3 ± 9.3 ms | 2.88 | increased the cellular uptake | – | –
2 | CC(=O)N([O-])CCCCCNC(=O)CCC(=O)N([O-])CCCCCNC(=O)CCC(=O)N([O-])CCCCCN.[Fe+3] [FOB, Feroxamine B, reference compound] | – | 2.06 ± 0.06 L/s/mmol | 2.75±0.06 | – | – | – | 2002 ± 143 | 75.5 ± 15.0 | – | 3.45 | 2280 ± 222 | 89.9 ± 11.21 ms and 89.9 ± 11.2 ms | 2.67 | – | – | –
3 | CC(=O)N(O)CCCCCNC(=O)CCC(=O)N(O)CCCCCNC(=O)CCC(=O)N(O)CCCCCN [DFOB, Deferoxamine B] | – | – | – | – | – | – | – | – | – | – | – | – | – | – | very low cell permeability | about 5 min
